Source: patent publication US8008291B2 (Mimetica Pty Ltd, priority 2008, dated 2011)

Molecular target: T1, human MC5R (hMC5R) (Homo sapiens, UniProt P33032)
T1 construct: purchased Perkin Elmer RBXMC5M400UA
Test: Human MC5R radioligand binding assay (membranes, [125I] NDP-MSH displacement)
Conditions: hMC5R binding; tested as trifluoroacetate or hydrochloride salts, or free bases; read-out: MC5R radioligand IC50
Method: Assessments of compound binding to human MC5R (hMC5R) ) by displacement of an ^125I-labeled NDP-MSH receptor ligand peptide were performed essentially as described in the data sheets produced by Perkin Elmer to accompany their frozen hMC5R membranes (Perkin Elmer catalog number RBXMC5M400UA).
[^125I] NDP-MSH: radiolabeled in house and purified by HPLC:
• Na^125I (0.5 mCi, 17.4 Ci/mg) was added to 50 μL sodium phosphate (50 mM, pH7.4) in an eppendorf tube precoated with IODOGEN. After incubation for 10 mins the phosphate buffer containing the iodine was added to NDP-MSH (10 ul at 1 mg/mL) in a separate eppendorf tube. This was incubated for a further 10 mins. The iodinated NDP-MSH was purified by HPLC on a Zorbax SB 300 column using solvent A: 0.05% TFA and solvent B: 90% acetonitrile 0.045% TFA with a linear gradient, 0-67% B over 60 mins. […] Resuspended membranes were kept on ice until they were added to the wells of the plate. Binding Protocol for 400 microassays per vial: • Assays were performed in 96 well polypropylene plates. […] This was incubated for 1 hr at 37° C.

T1 sequence (P33032 whole entry): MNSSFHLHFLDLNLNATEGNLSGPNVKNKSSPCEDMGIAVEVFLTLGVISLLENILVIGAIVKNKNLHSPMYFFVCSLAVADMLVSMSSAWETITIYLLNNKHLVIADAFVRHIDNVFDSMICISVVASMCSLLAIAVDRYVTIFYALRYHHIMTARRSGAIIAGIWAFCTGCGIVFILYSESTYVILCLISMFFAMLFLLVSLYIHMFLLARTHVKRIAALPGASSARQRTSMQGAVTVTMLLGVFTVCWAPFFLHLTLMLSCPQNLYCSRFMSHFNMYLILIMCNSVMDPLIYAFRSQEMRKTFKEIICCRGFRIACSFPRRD

Structure (SMILES) | IC50 [µM]
N=C(N)NCCC[C@@H]1N[C@H](CNC(=O)c2ccc3ccccc3c2)CCN(Cc2cccc3ccccc23)C1=O [Compound 263, N-(((3S,5S)-3-(3-guanidinopropyl)-1-(naphthalen-1-ylmethyl)-2-oxo-1,4-diazepan-5-yl)methyl)-2-naphthamide] | < 10
CCC(C)(CC)CN1CC[C@@H](CNC(=O)c2ccc(Cl)c(Cl)c2)N[C@@H](CCN)C1=O [Compound 520, N-(((3S,5S)-3-(2-aminoethyl)-1-(2-ethyl-2-methylbutyl)-2-oxo-1,4-diazepan-5-yl)methyl)-3,4-dichlorobenzamide] | < 10
NCCC[C@@H]1N[C@H](CNC(=O)c2ccc3ccccc3c2)CCN(Cc2cc(F)cc(C(F)(F)F)c2)C1=O [Compound 322, N-(((3S,5S)-3-(3-aminopropyl)-1-(3-fluoro-5-(trifluoromethyl)benzyl)-2-oxo-1,4-diazepan-5-yl)methyl)-2-naphthamide] | < 10
CC(=O)N[C@@H](Cc1ccc2ccccc2c1)[C@@H]1CCN(CC(c2ccccc2)c2ccccc2)C(=O)[C@H](CCCNC(=N)N)N1 [Compound 79, N-((S)-1-((3S,5S)-1-(2,2-diphenylethyl)-3-(3-guanidinopropyl)-2-oxo-1,4-diazepan-5-yl)-2-(naphthalen-2-yl)ethyl)acetamide] | < 10
CC(=O)N[C@H](CN1CC[C@@H](CNC(=O)c2ccc3ccccc3c2)N[C@@H](CCCNC(=N)N)C1=O)c1ccccc1 [Compound 265, N-(((3S,5S)-1-((S)-2-acetamido-2-phenylethyl)-3-(3-guanidinopropyl)-2-oxo-1,4-diazepan-5-yl)methyl)-2-naphthamide] | < 10
CN(C)CC[C@@H]1N[C@H](CNC(=O)c2ccc3ccccc3c2)CCN(CC(c2ccccc2)c2ccccc2)C1=O [Compound 358, N-(((3S,5S)-3-(2-(dimethylamino)ethyl)-1-(2,2-diphenylethyl)-2-oxo-1,4-diazepan-5-yl)methyl)-2-naphthamide] | < 1
CC[C@H](CN1CC[C@@H](CN(Cc2ccc(Cl)c(Cl)c2)C(C)=O)N[C@@H](CCN2CCCCC2)C1=O)c1ccccc1 [Compound 519] | < 10
CC[C@H](CN1CC[C@@H](CNC(=O)NCc2ccc(Cl)cc2)N[C@@H](CCN2CCCCC2)C1=O)c1ccccc1 [Compound 518] | < 1
NCCC[C@@H]1N[C@H](CNC(=O)c2cc3ccccc3[nH]2)CCN(CC(c2ccccc2)c2ccccc2)C1=O [Compound 107, N-(((3S,5S)-3-(3-aminopropyl)-1-(2,2-diphenylethyl)-2-oxo-1,4-diazepan-5-yl)methyl)-1H-indole-2-carboxamide] | < 1
CC[C@H](CN1CC[C@@H](CNC(=O)c2ccc(Cl)c(Cl)c2)N[C@@H](CCN2CCCC(F)(F)C2)C1=O)c1ccccc1 [Compound 484, 3,4-dichloro-N-(((3S,5S)-3-(2-(3,3-difluoropiperidin-1-yl)ethyl)-2-oxo-1-((S)-2-phenylbutyl)-1,4-diazepan-5-yl)methyl)benzamide] | < 1

More lines, now with the values ahead:

IC50 [µM] | Structure (SMILES)
< 1 | O=C1[C@H](CCN2CCCCC2)N[C@H](CN2C(=O)c3cc(Cl)c(Cl)cc3C2=O)CCN1Cc1cc(Cl)cc(Cl)c1 [Compound 535, 5,6-dichloro-2-(((3S,5S)-1-(3,5-dichlorobenzyl)-2-oxo-3-(2-(piperidin-1-yl)ethyl)-1,4-diazepan-5-yl)methyl)isoindoline-1,3-dione]
< 1 | O=C(NCC[C@@H]1CCN(CC(c2ccccc2)c2ccccc2)C(=O)[C@H](CCN2CCCC2)N1)c1ccc2ccccc2c1 [Compound 339, N-(2-((3S,5R)-1-(2,2-diphenylethyl)-2-oxo-3-(2-(pyrrolidin-1-yl)ethyl)-1,4-diazepan-5-yl)ethyl)-2-naphthamide]
< 1 | CCCCOC(=O)NCC[C@@H]1N[C@H](CNC(=O)c2ccc3cc(Cl)ccc3c2)CCN(C[C@@H](CC)c2ccccc2)C1=O [Compound 524, butyl 2-((2S,7S)-7-((6-chloro-2-naphthamido)methyl)-3-oxo-4-((S)-2-phenylbutyl)-1,4-diazepan-2-yl)ethylcarbamate]
< 1 | N=C(N)NCCC[C@@H]1N[C@H](CNC(=O)c2ccc3ccccc3c2)CCN(C[C@@H](NC(=O)c2ccccc2)c2ccccc2)C1=O [Compound 287, N-(((3S,5S)-1-((S)-2-benzamido-2-phenylethyl)-3-(3-guanidinopropyl)-2-oxo-1,4-diazepan-5-yl)methyl)-2-naphthamide]
< 0.1 | CC[C@@H](CN1CC[C@@H](CNC(=O)c2ccc3cc(Cl)ccc3c2)N[C@@H](CCN2CCCCC2)C1=O)C(C)C [Compound 471, 6-chloro-N-(((3S,5S)-1-((R)-2-ethyl-3-methylbutyl)-2-oxo-3-(2-(piperidin-1-yl)ethyl)-1,4-diazepan-5-yl)methyl)-2-naphthamide]
< 1 | CC[C@H](CN1CC[C@@H](CNC(=O)c2ccc(Cl)c(Cl)c2)N[C@@H](CCNC(C)C(F)(F)F)C1=O)c1ccccc1 (stereo partly drawn) [Compound 491, 3,4-dichloro-N-(((3S,5S)-2-oxo-1-((S)-2-phenylbutyl)-3-(2-(1,1,1-trifluoropropan-2-ylamino)ethyl)-1,4-diazepan-5-yl)methyl)benzamide]
< 0.1 | CC(C)NCCCC[C@@H]1N[C@H](CNC(=O)c2ccc3ccccc3c2)CCN(CC(c2ccccc2)c2ccccc2)C1=O [Compound 229, N-(((3S,5S)-1-(2,2-diphenylethyl)-3-(4-(isopropylamino)butyl)-2-oxo-1,4-diazepan-5-yl)methyl)-2-naphthamide]
< 0.1 | CCC(CC)CN1CC[C@@H](CNC(=O)c2ccc3cc(Cl)ccc3c2)N[C@@H](CCN2CCCCC2)C1=O [Compound 373, 6-chloro-N-(((3S,5S)-1-(2-ethylbutyl)-2-oxo-3-(2-(piperidin-1-yl)ethyl)-1,4-diazepan-5-yl)methyl)-2-naphthamide]
< 1 | N=C(N)NCCC[C@@H]1N[C@H](CNC(=O)c2ccc3ccccc3c2)CCN(C2CCCCC2)C1=O [Compound 205, N-(((3S,5S)-1-cyclohexyl-3-(3-guanidinopropyl)-2-oxo-1,4-diazepan-5-yl)methyl)-2-naphthamide]
< 0.1 | CCC(C)(CC)CN1CC[C@@H](CNC(=O)c2ccc(Cl)c(Cl)c2)N[C@@H](CCN2CCCCC2)C1=O [Compound 521, 3,4-dichloro-N-(((3S,5S)-1-(2-ethyl-2-methylbutyl)-2-oxo-3-(2-(piperidin-1-yl)ethyl)-1,4-diazepan-5-yl)methyl)benzamide]
< 1 | N=C(N)NCCC[C@@H]1N[C@H](CNC(=O)c2ccc3ccccc3c2)CCN(CC(OCc2ccccc2)c2ccccc2)C1=O (stereo partly drawn) [Compound 291, N-(((3S,5S)-1-(2-(benzyloxy)-2-phenylethyl)-3-(3-guanidinopropyl)-2-oxo-1,4-diazepan-5-yl)methyl)-2-naphthamide]
< 0.1 | CCC(CC)CN1CC[C@@H](CNC(=O)c2ccc3cc(Br)ccc3c2)N[C@@H](CCN2CCCCC2)C1=O [Compound 374, 6-bromo-N-(((3S,5S)-1-(2-ethylbutyl)-2-oxo-3-(2-(piperidin-1-yl)ethyl)-1,4-diazepan-5-yl)methyl)-2-naphthamide]
< 0.1 | O=C(NC[C@@H]1CCN(CC(c2ccccc2)c2ccccc2)C(=O)[C@H](CCN2CCCCC2)N1)c1ccc2ccccc2c1 [Compound 368, N-(((3S,5S)-1-(2,2-diphenylethyl)-2-oxo-3-(2-(piperidin-1-yl)ethyl)-1,4-diazepan-5-yl)methyl)-2-naphthamide]
